From patent publication US20100189683A1, “Pulsatile Dosing of Gossypol for Treatment of Disease” (Ascenta Therapeutics, Inc., priority 2008, published 2010)
Counter-ions that a name gives are not always drawn.

Key:
[1] = system: all-corners with relapsed SCLC; conditions: oral versus i.v. topotecan HCl; cited from earlier work
Mcl-1 = Mcl-1 (Homo sapiens, UniProt Q07820); conditions: U.S. Patent Application No. 2003/0008924; cited from earlier work
Bcl-2 = Bcl-2 (Homo sapiens, UniProt P10415); conditions: U.S. Patent Application No. 2003/0008924; cited from earlier work
Sequence of Bcl-2 (P10415 whole entry): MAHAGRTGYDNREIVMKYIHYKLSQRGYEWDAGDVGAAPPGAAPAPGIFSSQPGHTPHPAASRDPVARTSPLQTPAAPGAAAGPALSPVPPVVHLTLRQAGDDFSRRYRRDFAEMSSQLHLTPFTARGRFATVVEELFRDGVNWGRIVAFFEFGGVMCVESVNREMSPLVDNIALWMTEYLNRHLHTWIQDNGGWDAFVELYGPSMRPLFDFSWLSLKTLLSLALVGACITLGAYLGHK

Bcl-XL = Bcl-XL (Homo sapiens, UniProt Q07817); conditions: U.S. Patent Application No. 2003/0008924; cited from earlier work
Sequence of Bcl-XL (Q07817 whole entry): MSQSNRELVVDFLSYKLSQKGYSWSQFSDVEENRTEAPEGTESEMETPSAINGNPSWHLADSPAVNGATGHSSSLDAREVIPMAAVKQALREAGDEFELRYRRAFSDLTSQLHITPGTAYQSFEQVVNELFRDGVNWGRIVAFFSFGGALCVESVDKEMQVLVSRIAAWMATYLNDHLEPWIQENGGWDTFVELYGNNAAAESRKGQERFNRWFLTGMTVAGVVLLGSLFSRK

[2] = system: patients with advanced cancer; test: Pulsatile dose administration of AT-101 b.i.d. times 3 days every other week, clinical efficacy and case summaries; assay type: in vivo, human
Description: Following pulsatile dose administration of (−)-gossypol to patients with advanced cancer, clinical efficacy (e.g., patients having stable disease for 60 days or more) was monitored. […] The case summaries are as follows:
Patient 1 is a person diagnosed with non-small cell lung cancer (NSCLC) by bronchial biopsy in March 2005. The patient initially received the Carboplatin/paclitaxel with radiation therapy as adjuvant therapy from April to May 2005. Disease progression was diagnosed in September 2005 and treatment with erlotinib was begun in October 2005. The patient had progressive disease in January 2006. The patient started on treatment with AT-101 40 mg b.i.d. times 3 days every other week in March 2006. When the patient started on treatment with AT-101 they had extensive lymph node disease that remained stable on study drug for approximately 939 days (2.6 years). The patient's baseline signs and symptoms included: anemia, fatigue and productive cough. Their medical history includes: history of smoking, COPD, BPH, hypercholesterolemia, hypophosphatemia, RT induced esophagitis.
Patient 2 is a person diagnosed with a neuroendocrine carcinoma by a CT guided biopsy of an abdominal mass in May 2002. The patient was initially treated with interferon alpha from September 2002 to March 2003 but the disease progressed. Subsequently, the patient was treated with an investigational VEGFR2 targeted agent, SUO11248, from August 2003 to March 2004 until progression. The patient next received interferon plus capecitabine from August 2004 to June 2005 until disease progression in July 2005. Next, the patient was treated with […] doxirubicin from July 2005 to January 2006 until disease progression in February 2006. They started on the AT-101 treatment in February 2006 and received AT-101 30 mg b.i.d. times 3 days every other week. At the start of therapy, disease was present in the liver, abdomen, and pelvis and notable for numerous mesenteric masses. These remained stable on study for 18 cycles (534 days). The patient came off study due to increased weight loss and the investigator decision to send the patient for surgery for tumor debulking. The patient's baseline signs and symptoms included tumor pain, fatigue and weight loss. The patient's medical history included: GERD, HTN, congenital pulmonary cysts, anemia, and diarrhea.

[3] = system: A549 NSCLC xenograph model; test: In vivo efficacy in the A549 NSCLC xenograft model; set-up: species or system nude mice; conditions: intermittent dosing 60 mg/kg po days 1-3 and 15-17, in combination with taxotere 30 mg/kg iv single dose
Procedure: The in vivo efficacy of (−)-gossypol acetic acid co-crystals alone or in combination with taxotere (TXT) in the A549 NSCLC xenograph model is shown in FIGS. 2 and 3. About 5 million cells of A549 were inoculated into nude mice, 8 mice per dosing group. In one experiment, (−)-gossypol acetic acid co-crystals were administered at 15 mg/kg, oral dosing (po), daily for 21 days, either alone or in combination with taxotere at 8 mg/kg, iv, once a week for three weeks (FIG. 2). In another experiment, (−)-gossypol acetic acid co-crystals were administered at 60 mg/kg, po, daily for three days per week (day 1-3/week) every two weeks (days 1-3, and then days 15-17), either alone or in combination with taxotere at 30 mg/kg, iv, single dose only, once every three weeks (FIG. 3).

[4] = system: men with treatment naïve CRPC; test: Single agent AT-101 administration (20-30 mg daily); assay type: in vivo, human; conditions: single agent AT-101 at 20-30 mg daily
Description: Better compliance with a 3-day dosing regimen, compared to daily for 21 of 28 days, for example, is expected.

[5] = system: patients with metastatic prostate cancer, hormone-refractory; test: CS-202 Phase I-II, Cohort A (hormone-refractory patients): PSA and tumor response; assay type: in vivo, human; conditions: with docetaxel and prednisone
Description: See N. Engl. J. Med. 351:1502-1512 (2004) for further details of TAX 327 clinical study.
(“D”=docetaxel; “P”=prednisone).

[6] = system: men with docetaxel-refractory castration-resistant prostate cancer; test: CS-202 Cohort B: AT-101 added to docetaxel/prednisone in docetaxel-refractory CRPC
Procedure: An open-label non-randomized Phase I-II clinical trial (labeled CS-202) is being carried out on patients with histologically confirmed metastatic prostate cancer. Briefly, patients are divided in into two cohorts: Cohort A-Patients with rising PSA level on hormonal therapy, i.e., hormone-refractory patients, and Cohort B-Patients with PSA or disease progression on docetaxel (taxotere), i.e., docetaxel-refractory patients. All patients were treated with 40-60 mg (−)-gossypol acetic acid co-crystal 40-60 mg BID days 1-3, every 21 days, 75 mg/m2 docetaxel q 21 days and prednisone, daily per label.
Treatment regimen in this study is: oral AT-101 40 mg BID×3 days q 3 weeks, IV taxotere 75 mg/m^2 q 3 weeks, and oral prednisone 5 mg BID daily.
A clinical study of docetaxel and prednisone in combination with AT-101 using a pulse administration schedule in men with docetaxel-refractory castration-resistant prostate cancer (CRPC) is ongoing (see Example 4, cohort B patients). A strict definition of docetaxel refractoriness which requires that the patient have progression as measured by PSA levels, RECIST, or bone scan while receiving docetaxel (D) and prednisone (P) is being used in the study. RECIST criteria are widely-used and well known in the art. The intervention is to continue docetaxel and prednisone treatment and to add AT-101.

[7] = system: patients with histologically confirmed metastatic prostate cancer; test: CS-202 Phase I data from 9 patients (toxicity); assay type: in vivo, human; conditions: 40-60 mg BID days 1-3 every 21 days with docetaxel 75 mg/m2 and prednisone
[8] = Patient 1, NSCLC, 40 mg b.i.d. times 3 days every other week
[9] = Patient 2, 30 mg b.i.d. times 3 days every other week
[10] = 20 patients with measurable disease by RECIST
[11] = AT-101 added to continued docetaxel and prednisone
[12] = first 11 patients of Cohort B, with docetaxel and prednisone

Sequence of Mcl-1 (Q07820 whole entry): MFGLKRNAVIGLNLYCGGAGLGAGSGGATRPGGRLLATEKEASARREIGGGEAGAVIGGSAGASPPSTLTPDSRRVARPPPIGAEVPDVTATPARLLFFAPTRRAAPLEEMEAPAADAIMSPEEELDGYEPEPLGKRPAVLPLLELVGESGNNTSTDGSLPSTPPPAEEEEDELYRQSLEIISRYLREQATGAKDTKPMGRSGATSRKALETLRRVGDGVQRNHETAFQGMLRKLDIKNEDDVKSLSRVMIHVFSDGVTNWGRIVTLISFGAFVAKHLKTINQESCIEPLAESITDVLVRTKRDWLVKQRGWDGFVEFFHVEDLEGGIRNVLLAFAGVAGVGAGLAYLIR

## CC[C@@]1(O)C(=O)OCc2c1cc1n(c2=O)Cc2cc3c(CN(C)C)c(O)ccc3nc2-1 [topotecan HCl, (S)-10-[(dimethylamino)methyl]-4-ethyl-4,9-dihydroxy-1H-pyrano[3′,4′:6,7] indolizino [1,2-b] quinoline-3,14-(4H,12H)-dione monohydrochloride]
[1]
  Median progression free survival (PFS): 13.1 weeks
  ORR: 44%

## Cc1cc2c(C(C)C)c(O)c(O)c(C=O)c2c(O)c1-c1c(C)cc2c(C(C)C)c(O)c(O)c(C=O)c2c1O [Gossypol, gossypol]
Mcl-1
  Binding to Mcl-1 at the BH3 binding groove: shown to bind
Bcl-2
  Binding to Bcl-2 at the BH3 binding groove: shown to bind
Bcl-XL
  Binding to Bcl-XL at the BH3 binding groove: shown to bind

## Cc1cc2c(C(C)C)c(O)c(O)c(C=O)c2c(O)c1-c1c(C)cc2c(C(C)C)c(O)c(O)c(C=O)c2c1O [AT-101, (−)-gossypol acetic acid co-crystal]
[2]; [8]
  On-treatment toxicities: grade 2 peripheral neuropathy
  Time disease remained stable on study drug: approximately 939 days
[2]; [9]
  On treatment grade 1 toxicities: general body aches, nausea, flatulence, headache, fatigue, hypomagnesemia, vomiting, hypokalemia and diarrhea
  On treatment grade 2 toxicities: weight loss, nausea, vomiting
[2]; Patient 2, neuroendocrine carcinoma, 30 mg b.i.d. times 3 days every other week, 18 cycles
  Time disease remained stable on study: 534 days
[2]; Patient 2, considered serious, determined to be unrelated to AT-101 treatment
  On treatment grade 3 toxicity: small bowel obstruction
[2]; among 37 patients, b.i.d. times 3 days every other week
  Patients with clinical benefit (prolonged progression free period of more than 1 year): two patients had clinical benefit
[3]
  Tumor volume: effectively reduces tumor volume
[4]
  RECIST SD (stable disease): no RECIST SD (stable disease)
[4]; compared with pulsatile dosing with D/P
  PSA PRs: fewer PSA PRs
[5]; Cohort A
  PSA response versus time: PSA reductions occur early in the treatment and are long lasting
[5]; first 20 patients of Cohort A
  PSA response: high rate of PSA response
  Patients refractory at the onset of treatment: only one patient out of 20 was refractory
[6]; [10]
  Complete response (CR): one complete response (CR)
  PRs (RECIST): 4
[6]; 20 patients with measurable disease by RECIST criteria at baseline
  Patients with major tumor shrinkage based on radiographic assessments: 6/20
[6]; [11]
  Patients who have achieved a PSA partial response (PR) (50% or greater reduction): 7/35
  Patients with some PSA reduction: 20/35
[6]; added to a taxotere/prednisone regimen, patients of Cohort B
  PSA response kinetics: abrupt reversal of the PSA response (from rising to falling)
[6]; another single patient with measurable disease
  Reduction in tumor volume: 29%
[6]; [12]
  Patients having a 30+% decline in PSA response: 4 patients
  Patients having a 50+% decline in PSA response: 2 patients
  Patients with the desired PSA response: 6 patients
[6]; human, in vivo
  Peak and AUC concentrations: higher peak and AUC concentrations
[6]; of 35 patients
  Patients on-study for 4 months or longer: Eight out of the 35 patients
  Patients on-study for 6 months or longer: 3 patients
[6]; patients meeting the strict definition of refractoriness
  D/P refractory patients who have had a PSA PR: 4/32
[6]; pulsatile dose administration
  Tolerability: well tolerated
[6]; pulsatile dose administration, some patients with CRPC
  D/P chemoresistance: overcomes D/P chemoresistance in some patients with CRPC
[6]; taxotere-refractory patients (37 eligible; 21 with measurable disease), AT-101 40 mg BID×3 days q 3 weeks added to taxotere/prednisone
  Responses, time-to-event plot: multiple durable responses
[6]; taxotere-refractory patients, AT-101 40 mg BID×3 days q 3 weeks added to taxotere/prednisone
  RECIST responses: RECIST partial responses are observed
[7]
  Docetaxel hematological toxicity: no increase in docetaxel hematological toxicity
  Dose-limiting toxicities: no dose-limiting toxicities
  Severe gastrointestinal toxicity: no severe gastrointestinal toxicity
